Each block holds one compound with its values, some of them ahead of it.
Columns and labels:
FCA-induced arthritis [1] = conditions: FCA rats, serum, 10 mg.kg^−1 oral
Procedure: (§1) Chronic inflammation induced by Freund's Complete Adjuvant contains a suspension of heat-killed Mycobacterium tuberculosis in the vehicle (Chondrex, Labex Corporation). 100 μL of FCA (10 mg/mL) was injected intradermally to the left-hand paw of SD rats[42]. […] Induction of inflammation became chronic by 9–12 days and then rats were divided into 7 groups having 6 rats in each group. Everything possible was done to minimize the suffering of experimental animals. Minimum number of rats only were drafted to generate reliable data. 42 rats were randomly allocated into seven groups (6 × 7).
(§2) Group I (n = 6) served as normal rats that received an equal volume of vehicle control. Group II (n = 6) was arthritic model control treated with vehicle only. Group III (n = 6) was arthritic control which received the diclofenac (10 mg.kg^–1). Groups IV (n = 6), V (n = 6), VI (n = 6) and VII (n = 6) were treated with a low and high dose of methyl gallate (20 mg.kg^–1, 40 mg.kg^–1) and MGSD 1 (1 mg.kg^–1, 10 mg.kg^–1). The drugs were orally administered through oral gavage daily in PBS vehicle for 28 days.
(§3) Blood was drawn from jugular vein[43] and collected in heparinized tubes and used for further analysis. By using Horiba 5-part hematology analyzer the blood parameters like RBC, WBC, neutrophil and hemoglobin were analyzed. Serum parameters were analyzed using Stat Fax autoanalyzer. Serum glutamic pyruvic transaminase (SGPT), serum glutamic oxaloacetic transaminase (SGOT) and alkaline phosphatase (ALP) were determined using standard diagnostic kits (Proton, Accurex).

[2] = tested on: ankle joints, liver, spleen, and thymus; assay: FCA-induced arthritis: histological analysis; format: in vivo, Sprague–Dawley (SD) rats; conditions: FCA rats
Procedure: The animals used for the FCA induced arthritis were euthanized at the end of the experiment and the ankle joints were separated from the hind paw and fixed in 10% buffered formalin. Similarly, liver, spleen, and thymus were also dissected carefully and immersed in fixative, and after 24 h each specimen were decalcified in 5% nitric acid, followed by embedding in paraffin wax and 4 µm thickness sections were prepared. These prepared sections were then mounted and stained with hematoxylin and[…] under brightfield compound binocular research microscope at 100X and 400X magnification and inflammation was graded.

FCA-induced arthritis [3] = assay: FCA-induced arthritis: haematological parameters; format: in vivo, Sprague–Dawley (SD) rats; conditions: FCA rats, 10 mg.kg^−1 oral
Procedure: as §1, §2, §3

FCA-induced arthritis [4] = assay: FCA-induced arthritis: hind paw volume; format: in vivo, Sprague–Dawley (SD) rats; conditions: FCA rats, 10 mg.kg^−1 oral
Procedure: as §1, §2
By a plethysmometer the rat hind paw volume was measured from the initial day to final day (28th day) with successive intervals of 9 days, before and after FCA injection. The inhibition was calculated by the formula given below. Percentageinhibition=1-Meanchangesinpawvolumeoftreatedrat/Meanchangesinpawvolumeofuntreatedrat×100.

[5] = FCA-induced arthritis: body weight measurement; format: in vivo, Sprague–Dawley (SD) rats; conditions: FCA rats, 10 mg.kg^−1 oral
Procedure: as §1, §2
The bodyweight of the animals was measured every day after the commencement of the experiment till the end (28th day). The weight change was calculated using the formula: Weightchange%=Wt-Wo/[…], where Wt is the weight of the animal at time t
Wo is the weight of the animal on the initial day.

FCA-induced arthritis [6] = assay: FCA-induced arthritis: organ index (liver, spleen); format: in vivo, Sprague–Dawley (SD) rats; conditions: FCA rats, 10 mg.kg^−1 oral, end of experiment
Procedure: as §1, §2
At the end of the experiments, animals were euthanized using ketamine injection. The liver and spleen were removed at the end of the experiment and weighed. The index of the organs was expressed as the percentage (%) wet weight of organ versus body weight. The organ indexes were calculated by using the following formula Organindex=Weightoforgang/Bodyweightg×100.

[7] = biological target: T1, Lipoxidase from Glycine max (15- LOX) (Glycine max, UniProt P08170); assay: In-vitro LOX enzyme inhibition assay (spectrophotometric, 234 nm); format: biochemical; conditions: 20 μM compound
T1 construct: purchased Sigma (Sigma-Aldrich, UK)
T1 sequence (P08170 1-839): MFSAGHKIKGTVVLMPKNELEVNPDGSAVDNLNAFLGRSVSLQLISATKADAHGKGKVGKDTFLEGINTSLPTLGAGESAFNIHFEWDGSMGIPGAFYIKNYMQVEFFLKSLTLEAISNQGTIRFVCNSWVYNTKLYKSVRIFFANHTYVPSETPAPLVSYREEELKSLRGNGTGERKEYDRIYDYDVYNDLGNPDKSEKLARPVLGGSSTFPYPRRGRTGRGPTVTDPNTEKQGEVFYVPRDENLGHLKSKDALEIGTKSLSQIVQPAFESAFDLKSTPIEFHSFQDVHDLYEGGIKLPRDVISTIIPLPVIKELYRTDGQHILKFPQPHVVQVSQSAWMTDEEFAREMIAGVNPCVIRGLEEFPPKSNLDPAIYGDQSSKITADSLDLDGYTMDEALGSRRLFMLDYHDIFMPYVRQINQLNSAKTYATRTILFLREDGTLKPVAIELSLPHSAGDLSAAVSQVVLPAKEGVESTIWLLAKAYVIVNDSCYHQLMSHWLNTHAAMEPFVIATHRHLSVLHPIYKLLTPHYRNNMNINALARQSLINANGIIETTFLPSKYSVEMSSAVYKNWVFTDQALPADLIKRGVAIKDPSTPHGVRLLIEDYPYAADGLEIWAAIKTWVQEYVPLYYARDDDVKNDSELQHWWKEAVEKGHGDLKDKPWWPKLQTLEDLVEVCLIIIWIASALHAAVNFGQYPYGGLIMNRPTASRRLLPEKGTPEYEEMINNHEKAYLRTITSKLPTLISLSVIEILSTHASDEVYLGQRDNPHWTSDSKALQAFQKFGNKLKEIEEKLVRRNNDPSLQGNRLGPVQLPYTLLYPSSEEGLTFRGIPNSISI
Procedure: The LOX inhibition assays were performed with MGSDs. The inhibitory activity was measured by a modified spectrophotometric method[16],[39]. The plant LOX pathway is in many respects equivalent to the ‘arachidonic acid cascades’ in animals. For this reason, the in vitro inhibition of LOX constitutes a good model for the screening of compounds with anti-inflammatory potential[40],[41]. LOX (Lipoxidase from Glycine max (15- LOX); EC 1.13.11.12) type I-B (Soybean), and linoleic acid were purchased from Sigma (Sigma-Aldrich, UK) and used without further purification. Enzyme solution of 1.03 µM was prepared in 0.2 mM borate buffer, pH 8.5. The substrate, linoleic acid solution of 0.3 mM was also prepared in the borate buffer at the same pH. […] The final concentration of MGSDs used for the analysis was 20 µM. The assay mixture was made of 50 µL of LOX, 50 µL of the test solution and 360 µL of the substrate. The final volume was made up to 2 mL with corresponding borate buffer quantity. The activity of LOX was measured on the formation of […], which was monitored at 234 nm on spectrophotometer, (HITACHI U 2900, Japan). The same procedure was repeated with triplicate for the confirmation of LOX inhibitory activity[16],[39].

[8] = biological target: T1, Lipoxidase from Glycine max (15- LOX); assay: Michaelis–Menten enzyme kinetics (Lineweaver-Burk); format: biochemical; conditions: for IC50: Cheng–Prusoff from Ki; for Ki: linoleic acid substrate, competitive
Procedure: To identify the mode of inhibition, enzyme kinetics assay was performed with MGSDs. For the kinetic analysis different substrate concentrations of 18, 27, 36, 45, 54, 63 µM were prepared in 0.2 mM borate buffer (H 9)[16]. The assay mixture was made of 50 µL of LOX, 50 µL of the test solution and different concentrations of the substrate. The final volume was made upto 2 mL with corresponding borate buffer quantity. The activity of LOX was measured by the formation of […], which was monitored at 234 nm on spectrophotometer, (HITACHI U 2900, Japan). The reaction was measured at a time span of 300 s. The same experiment was repeated in the presence of 0.1, 0.08 and 0.06 μM concentration of MGSDs. The Line Weaver-Burk plot was constructed and Michaelis–Menten constant (Km) and Maximal Velocity (Vmax) were determined from the plot. From the Km and Vmax obtained, the inhibitor constant, Ki was calculated using the following equation derived from the Michaelis–Menten Equation: Km′=Km1+I0/Ki. The IC50was calculated using the Cheng–Prusoff equation, Ki=IC50/1+S/Km.

LOX = biological target: T2, LOX (Glycine max, UniProt P08170); assay: Fluorescence quenching studies; format: binding; conditions: 296 K, pH 9; for Kd: read-out: Binding constant (K) (converted); for Quenching constant (Ksv): Stern–Volmer
T2 construct: purchased Sigma (Sigma-Aldrich, UK)
T2 sequence (P08170 1-839): T1 sequence (P08170 1-839)
Description: To analyze the type of mechanism, the data of fluorescence of LOX was plotted, as relative fluorescence intensity (F0/F), against MGSDs. Here F and F0 are the fluorescence intensity in the presence and absence of MGSDs respectively. The Stern–Volmer constants were obtained from the plot by linear regression using the expression: F0/F=1+KsvQ.
Ksv is the Stern–Volmer constant and [Q] is the respective concentration of derivatives. Ksv which depicts the binding affinity between the fluorophore (protein) and quencher (ligand), were obtained from the slopes of the plot (Supplementary Fig. 15). […] The Fluorescence quenching data provided information about the binding constant (K), the number of binding sites (n), and the values could be arrived by applying the equation. Log F0-F/F=log K+nlogQ.
The Fluoromax-4 spectrophotometer (Spectra-NanoLED source 278) was used for studying fluorescence quenching of the compound. Bandwidth set at 5 nm for both excitation and emission spectra. The wavelength was set for excitation at 280 nm and the emission was recorded at 290–450 nm using 1.0 cm cell at 296 K temperature. The LOX with a concentration of 7 μM, dissolved in borate buffer at pH 9 and ligands at the concentrations of 35, 70, 105, 140, 175, 210, 245 and 280 μM were used for the experiment.

SMILES: O=C(O)Cc1ccccc1Nc1c(Cl)cccc1Cl [Diclofenac]
SGOT (FCA-induced arthritis [1]): 210 ± 1.73 IU/L | SGPT (FCA-induced arthritis [1]): 91 ± 1.20 IU/L | Histology of ankle joints ([2]; 10 mg.kg^-1): synovial joint was seen free of infiltration and oedema | Histology of liver ([2]; dose not stated): hepatocyte arrays and central sinusoid area were seen to regain normalcy and a few necrotic cells were still visible | Histology of spleen ([2]; dose not stated): periarteriolar lymphoid sheath regained normalcy | Histology of thymus ([2]; methyl gallate high dose): reduction in the number of neutrophils | Hb (FCA-induced arthritis [3]): 14.3 ± 0.4 g/dL | Lymphocyte (FCA-induced arthritis [3]): 73.2 ± 1.64% | Neutro phil (FCA-induced arthritis [3]): 11.5 ± 0.15% | RBC (FCA-induced arthritis [3]): 7.92 ± 0.18^# 10^6/mm^3 | WBC (FCA-induced arthritis [3]): 9.25 ± 0.10^# 10^3/mm^3 | Percentage of inhibition (paw oedema) (FCA-induced arthritis [4]): 59% | Paw volume (mL) (mean ± SEM) 9th day (FCA-induced arthritis [4]; 9th day): 1.44 ± 0.16 mL | Paw volume (mL) (mean ± SEM) 18th day (FCA-induced arthritis [4]; 18th day): 0.8 ± 0.22 mL | Paw volume (mL) (mean ± SEM) 28th day (FCA-induced arthritis [4]; 28th day): 0.73 ± 0.08 mL | Paw volume (mL) (mean ± SEM) Initial day (FCA-induced arthritis [4]; initial day): 0.56 ± 0.05 mL | Percentage of inhibition (paw oedema) (FCA-induced arthritis [4]; listed as diclofenac): 59% | Percentage of body weight (Mean ± SEM) 9th day ([5]; 9th day): 9.9 ± 0.07% | Percentage of body weight (Mean ± SEM) 18th day ([5]; 18th day): 36.55 ± 1.10% | Percentage of body weight (Mean ± SEM) 28th day ([5]; 28th day): 41.52 ± 1.36% | Organ index (%) Liver (FCA-induced arthritis [6]): 3.18 ± 0.11% | Organ index (%) Spleen (FCA-induced arthritis [6]): 0.21 ± 0.01%

inhibition at 20 µM [7]: 65 ± 2.65% | IC50 ([8]; abstract): 0.226 µM | Ki [8]: 0.06 µM | Kd (LOX): 485 µM | Quenching constant (Ksv) (LOX): 7800 M⁻¹
SMILES: O=C(O)COc1cc(C(=O)O)cc(O)c1O [MGSD 3, (3-(carboxymethoxy)-4,5-dihydroxybenzoic acid]

inhibition at 20 µM [7]: 68 ± 4.32% | IC50 [8]: 0.34 µM | Ki [8]: 0.1 µM | Kd (LOX): 439 µM | Quenching constant (Ksv) (LOX): 6300 M⁻¹
SMILES: O=C(O)COc1cc(C(=O)O)cc(O)c1OCC(=O)O [MGSD 2, 2,2′-((5-carboxy-3-hydroxy-1,2-phenylene)bis (oxy))diacetic acid]

From PMC10313808, “Lipoxygenase inhibitory synthetic derivatives of methyl gallate regulate gene expressions of COX-2 and cytokines to reduce animal model arthritis” (Scientific Reports, 2023)
